Assay results taken from ChEMBL document CHEMBL1201862, “PubChem BioAssay data set” (2004).
Where “and” joins values, the source holds several entries; their conditions need not be identical. Equal values may be shown once.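 Cells were grown in 96-well plates and exposed to each compound for 48 hours at five concentrations; endpoints were interpolated linearly between bracketing concentrations, or set to the highest concentration if not reached. GI50 = concentration required for 50% inhibition of growth.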 Calls of active or inactive are those of the source. Rule as the data show it: active = GI50 up to about 1.1 µM and inactive = higher.

How the values were obtained:
Assay in all cases: inhibition of tumour cell growth, NCI panel, 48 h
[1] = test system: SW-620
[2] = test system: SK-OV-3
[3] = test system: PC-3
[4] = test system: SK-MEL-2
[5] = test system: CCRF-CEM
[6] = test system: HT-29
[7] = test system: MDA-MB-435
[8] = test system: NCI-H522
[9] = test system: 786-0
[10] = test system: SNB-19
[11] = test system: SF-268
[12] = test system: HOP-62
[13] = test system: MDA-N
[14] = test system: SR
[15] = test system: ACHN
[16] = test system: Malme-3M
[17] = test system: NCI-H226
[18] = test system: RXF 393
[19] = test system: MOLT-4
[20] = test system: NCI/ADR-RES

Measured: GI50

O=C(Nn1cnn2c(=O)c3ccccc3nc2c1=O)c1ccccc1
inactive: [1] > 100 µM | [2] > 100 µM | [3] > 100 µM | [4] > 100 µM | [5] > 100 µM | [6] > 100 µM | [7] > 100 µM | [8] > 100 µM | [9] > 100 µM | [10] > 100 µM | [11] > 100 µM | [12] > 100 µM | [13] > 100 µM | [14] > 100 µM | [15] > 100 µM | [16] > 100 µM | [17] > 100 µM

COC(=O)C1=COC(C)C2CN3CCc4c([nH]c5cc(OC)c(OC)cc45)C3CC12 (stereo unspecified)
inactive: [18] 15.3 µM | [2] > 100 µM | [3] 64.9 µM and 37 µM | [4] > 100 µM | [6] 34.2 µM and 34.7 µM | [7] > 100 µM and 72.6 µM | [9] > 100 µM and 73.8 µM | [10] 66.8 µM and 75.3 µM | [11] > 100 µM and 65 µM | [12] 89.7 µM | [13] 55.7 µM | [14] 31 µM and 58.6 µM | [15] 36.3 µM and 31.3 µM | [16] > 100 µM | [17] > 100 µM and 61.5 µM | [19] 35.5 µM and 28.6 µM

CC(=O)C(=[N+]=[N-])C(=O)N(C)CCC#N
inactive: [18] > 10 µM | [1] > 10 µM | [2] > 10 µM | [3] > 10 µM | [4] > 10 µM | [5] > 10 µM | [6] > 10 µM | [7] > 10 µM | [9] > 10 µM | [10] > 10 µM | [11] > 10 µM | [12] > 10 µM | [13] > 10 µM | [14] > 10 µM | [15] > 10 µM | [16] > 10 µM | [17] > 10 µM | [19] > 10 µM

C/C(=N\c1ccc(N(C)C)cc1)c1ccccc1
inactive: [18] 5.35 µM | [1] 17.9 µM | [2] > 100 µM | [3] 23.4 µM | [4] 11.2 µM | [5] 17.7 µM | [6] 30.5 µM | [8] 16.7 µM | [9] 19.8 µM | [10] 86.3 µM | [11] > 10 µM | [20] 27 µM | [12] 96.2 µM | [13] 21.9 µM | [14] 19.2 µM | [15] 26.2 µM | [16] 10.9 µM | [17] 76.2 µM | [19] 23.9 µM

CC(=O)SCCC(NC(=S)Nc1ccccc1)P(=O)(Oc1ccccc1)Oc1ccccc1 (stereo unspecified)
inactive: [18] > 100 µM | [1] > 100 µM | [2] > 100 µM | [5] > 100 µM | [6] > 100 µM | [7] > 100 µM | [8] > 100 µM | [9] > 100 µM | [10] > 100 µM | [11] > 100 µM | [20] > 100 µM | [12] > 100 µM | [13] > 100 µM | [14] > 100 µM | [15] > 100 µM | [16] > 100 µM | [17] > 100 µM | [19] > 100 µM

C=C1CC2OC2(C(=O)O[C@H]2CCC3[C@@H]4CCC5=CC(=O)CC[C@]5(C)C4CC[C@@]32C)C1=O (stereo partly specified)
inactive: [18] 4.43 µM | [1] 3.4 µM | [2] 20 µM | [4] 6.07 µM | [6] 8.34 µM | [7] 12.7 µM | [8] 2.47 µM | [9] 2.04 µM | [10] 18.7 µM | [11] 8.41 µM | [12] 21.4 µM | [15] 8.09 µM | [16] 6.56 µM | [17] 22.9 µM | [19] 1.49 µM
active: [5] 0.804 µM | [14] 0.805 µM

CC(=O)O[C@H]1CC[C@@]2(C)C(CC[C@]3(C)C2CC[C@]2(C)Oc4c(C)cc(O)cc4C[C@@H]23)C1(C)C (stereo partly specified)
inactive: [18] 2.88 µM | [1] 1.88 µM | [2] 7.08 µM | [4] 7.52 µM | [5] 3.79 µM | [6] 11.2 µM | [8] 5.46 µM | [9] 1.99 µM | [10] 4.24 µM | [11] 4.61 µM | [12] 10.8 µM | [14] 2.67 µM | [15] 5.46 µM | [16] 10.1 µM | [17] 15.9 µM | [19] 2.84 µM

Nc1nc(CCC(=O)Nc2cccc(C(F)(F)F)c2)cc(-c2cccc3ccccc23)n1
inactive: [18] > 100 µM | [1] > 100 µM | [2] > 100 µM | [4] > 100 µM | [5] > 100 µM | [6] > 100 µM | [8] > 100 µM | [9] > 100 µM | [10] > 100 µM | [11] > 100 µM | [12] > 100 µM | [14] > 100 µM | [15] > 100 µM | [16] > 100 µM | [17] > 100 µM | [19] > 100 µM

CCOC1=NC(C(F)(F)F)(C(F)(F)F)N=C(N2CCCCC2)O1
inactive: [18] > 100 µM | [1] > 100 µM | [3] > 100 µM | [4] > 100 µM | [5] > 100 µM | [6] > 100 µM | [7] > 100 µM | [8] > 100 µM | [9] > 100 µM | [10] > 100 µM | [11] > 100 µM | [20] > 100 µM | [12] > 100 µM | [14] 59 µM | [15] > 100 µM | [16] > 100 µM | [17] > 100 µM | [19] > 100 µM

CCCc1cn2c(/C=N/NC(=N)N)c(-c3cccc([N+](=O)[O-])c3)nc2s1
active: [5] 0.746 µM
inactive: [18] 1.89 µM | [1] 3.08 µM | [2] 2.22 µM | [3] 2.59 µM | [4] 2.1 µM | [6] 2.06 µM | [7] 1.76 µM | [8] 1.98 µM | [9] 1.95 µM | [10] 2.07 µM | [11] 2.25 µM | [20] 2.92 µM | [12] 1.78 µM | [14] 2.09 µM | [15] 1.79 µM | [16] 1.3 µM | [17] 1.66 µM | [19] 1.23 µM

C=C[C@]1(C)CC(=O)C(C(C)C=O)[C@]12C(=O)Oc1cccc(C)c1C2=O (stereo partly specified)
inactive: [18] 13.9 µM | [1] 11.8 µM | [2] 16.6 µM | [3] 13.3 µM | [4] 17.1 µM | [5] 2.26 µM | [6] 13.7 µM | [7] 15.2 µM | [8] 3.72 µM | [9] 16.4 µM | [10] 12.2 µM | [11] 24.1 µM | [12] 20.2 µM | [13] 14.5 µM | [14] 27 µM | [15] 15.6 µM | [16] 18 µM | [17] 15.3 µM | [19] 23.9 µM

CC(C(=O)N1C(=O)N(C(=O)C(C)C(O)c2ccccc2)C(c2ccccc2)C1c1ccccc1)C(O)c1ccccc1 (stereo unspecified)
inactive: [18] 6.21 µM | [1] 28.7 µM | [4] 10.2 µM | [5] 5.56 µM | [6] 5 µM | [7] 15 µM | [8] 7.19 µM | [9] 26.1 µM | [10] 5.52 µM | [11] 13.4 µM | [12] 12.3 µM | [13] > 10 µM | [14] 3.61 µM | [15] 6.7 µM | [16] 12.2 µM | [17] 12.4 µM | [19] 3.66 µM

CCc1nc(Cl)c(Cl)c(Cl)n1
inactive: [18] > 100 µM | [1] > 100 µM | [2] > 100 µM | [3] > 100 µM | [4] > 100 µM | [5] > 100 µM | [6] > 100 µM | [7] > 100 µM | [9] > 100 µM | [10] > 100 µM | [11] > 100 µM | [20] > 100 µM | [12] > 100 µM | [14] > 100 µM | [15] > 100 µM | [16] > 100 µM | [17] > 100 µM | [19] > 100 µM

C[C@H](NC(=O)n1c2ccccc2c2ccccc21)C(=O)O
inactive: [18] > 100 µM | [1] > 100 µM | [2] > 100 µM | [4] > 100 µM | [5] > 100 µM | [6] > 100 µM | [8] > 100 µM | [9] > 100 µM | [10] > 100 µM | [11] > 100 µM | [12] > 100 µM | [14] > 100 µM | [15] > 100 µM | [16] > 100 µM | [17] > 100 µM | [19] > 100 µM

CNC(=O)N1N[C@H](c2ccccc2)[C@@H]1c1ccccc1.OB(O)O
inactive: [18] 14.2 µM | [1] 28.4 µM | [2] 34 µM | [3] 28.1 µM | [4] 15.3 µM | [5] 32.4 µM | [6] 16.4 µM | [9] 32.4 µM | [10] 46.1 µM | [20] 15.4 µM | [12] 28.6 µM | [13] 28.1 µM | [14] 18.4 µM | [15] 36.6 µM | [16] 19.7 µM | [17] 16.7 µM | [19] 18.7 µM
